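Values below derive from 48-hour exposures of cells grown in 96-well plates, with endpoints linearly interpolated between the two concentrations bracketing the appropriate inhibition level. GI50: concentration for 50% inhibition of growth.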 Calls of active or inactive are those of the source. No stated cut-off is given here; in the data, active = GI50 up to about 1.1 µM and inactive = higher.
Key:
Assay in all cases: inhibition of tumour cell growth, NCI panel, 48 h
SNB-78 = system: SNB-78
A498 = system: A498
RXF 631 = system: RXF 631
HOP-18 = system: HOP-18
MOLT-4 = system: MOLT-4
CCRF-CEM = system: CCRF-CEM
DMS-114 = system: DMS-114
SNB-19 = system: SNB-19
SK-MEL-28 = system: SK-MEL-28
OVCAR-5 = system: OVCAR-5
SN12C = system: SN12C
HCC 2998 = system: HCC 2998
K562 = system: K562
SW-620 = system: SW-620
EKVX = system: EKVX
HOP-92 = system: HOP-92
DLD-1 = system: DLD-1
OVCAR-4 = system: OVCAR-4
HOP-62 = system: HOP-62
Malme-3M = system: Malme-3M
NCI-H23 = system: NCI-H23
SK-OV-3 = system: SK-OV-3
SR = system: SR
RXF 393 = system: RXF 393
COLO 205 = system: COLO 205
786-0 = system: 786-0
SNB-75 = system: SNB-75
RPMI-8226 = system: RPMI-8226
ACHN = system: ACHN
LXFL 529 = system: LXFL 529
SF-295 = system: SF-295
IGROV-1 = system: IGROV-1
U-251 = system: U-251
HCT-15 = system: HCT-15
LOX IMVI = system: LOX IMVI
UACC-257 = system: UACC-257
SK-MEL-2 = system: SK-MEL-2
KM-20L2 = system: KM-20L2
XF498 = system: XF498
NCI-H226 = system: NCI-H226
UO-31 = system: UO-31
SF-268 = system: SF-268
OVCAR-8 = system: OVCAR-8
KM12 = system: KM12
A549 = system: A549
M14 = system: M14
NCI-H522 = system: NCI-H522
UACC-62 = system: UACC-62
NCI-H460 = system: NCI-H460
HL-60 = system: HL-60
SF-539 = system: SF-539
OVCAR-3 = system: OVCAR-3
TK-10 = system: TK-10
HT-29 = system: HT-29
M19-MEL = system: M19-MEL
HCT-116 = system: HCT-116
SK-MEL-5 = system: SK-MEL-5
CAKI-1 = system: CAKI-1
MDA-N = system: MDA-N
MCF7 = system: MCF7
MDA-MB-231 = system: MDA-MB-231
DU-145 = system: DU-145
Hs-578T = system: Hs-578T
DMS-273 = system: DMS-273
BT-549 = system: BT-549
NCI/ADR-RES = system: NCI/ADR-RES
MDA-MB-435 = system: MDA-MB-435
PC-3 = system: PC-3
T47D = system: T47D

FC(F)(F)c1nc2ccc3[nH]c4c(-c5ccccc5)nccc4c3c2[nH]1
GI50 (SNB-78): > 100 µM (inactive) | GI50 (A498): > 100 µM (inactive) | GI50 (RXF 631): > 100 µM (inactive) | GI50 (HOP-18): > 100 µM (inactive) | GI50 (MOLT-4): > 100 µM (inactive) | GI50 (CCRF-CEM): > 45.7 µM (inactive) | GI50 (DMS-114): > 45.4 µM (inactive) | GI50 (SNB-19): > 100 µM (inactive) | GI50 (SK-MEL-28): > 100 µM (inactive) | GI50 (OVCAR-5): > 100 µM (inactive) | GI50 (SN12C): > 100 µM (inactive) | GI50 (HCC 2998): > 100 µM (inactive) | GI50 (K562): > 56.9 µM (inactive) | GI50 (SW-620): > 100 µM (inactive) | GI50 (EKVX): > 100 µM (inactive) | GI50 (HOP-92): > 100 µM (inactive) | GI50 (DLD-1): > 100 µM (inactive) | GI50 (OVCAR-4): > 100 µM (inactive) | GI50 (HOP-62): > 100 µM (inactive) | GI50 (Malme-3M): > 100 µM (inactive) | GI50 (NCI-H23): > 100 µM (inactive) | GI50 (SK-OV-3): > 100 µM (inactive) | GI50 (SR): 17.9 µM (inactive) | GI50 (RXF 393): > 100 µM (inactive) | GI50 (COLO 205): > 100 µM (inactive) | GI50 (786-0): > 100 µM (inactive) | GI50 (SNB-75): > 100 µM (inactive) | GI50 (RPMI-8226): > 42.9 µM (inactive) | GI50 (ACHN): > 100 µM (inactive) | GI50 (LXFL 529): > 100 µM (inactive) | GI50 (SF-295): > 100 µM (inactive) | GI50 (IGROV-1): > 100 µM (inactive) | GI50 (U-251): > 100 µM (inactive) | GI50 (HCT-15): > 100 µM | GI50 (LOX IMVI): > 46.8 µM (inactive) | GI50 (UACC-257): > 100 µM (inactive) | GI50 (SK-MEL-2): > 100 µM (inactive) | GI50 (KM-20L2): > 100 µM (inactive) | GI50 (XF498): > 100 µM (inactive) | GI50 (NCI-H226): > 100 µM (inactive) | GI50 (UO-31): > 100 µM (inactive) | GI50 (SF-268): > 100 µM (inactive) | GI50 (OVCAR-8): > 100 µM (inactive) | GI50 (KM12): > 100 µM (inactive) | GI50 (A549): > 100 µM (inactive) | GI50 (M14): > 100 µM (inactive) | GI50 (NCI-H522): > 83.8 µM (inactive) | GI50 (UACC-62): > 100 µM (inactive) | GI50 (NCI-H460): > 80 µM (inactive) | GI50 (HL-60): 97.5 µM (inactive) | GI50 (SF-539): > 100 µM (inactive) | GI50 (OVCAR-3): > 100 µM (inactive) | GI50 (TK-10): > 100 µM (inactive) | GI50 (HT-29): > 100 µM (inactive) | GI50 (M19-MEL): > 100 µM (inactive) | GI50 (HCT-116): > 74.5 µM (inactive) | GI50 (SK-MEL-5): > 100 µM (inactive) | GI50 (CAKI-1): > 100 µM (inactive)

Cc1c(N(C)C)ccc2c(=O)c3cccc(CC(=O)O)c3oc12
GI50 (SNB-78): > 100 µM (inactive) | GI50 (A498): > 81.8 µM (inactive) | GI50 (RXF 631): > 100 µM (inactive) | GI50 (HOP-18): > 100 µM (inactive) | GI50 (MOLT-4): > 100 µM (inactive) | GI50 (CCRF-CEM): > 100 µM (inactive) | GI50 (MDA-N): > 100 µM (inactive) | GI50 (MCF7): > 100 µM (inactive) | GI50 (DMS-114): > 100 µM (inactive) | GI50 (SNB-19): > 43.4 µM (inactive) | GI50 (SK-MEL-28): > 100 µM (inactive) | GI50 (OVCAR-5): > 100 µM (inactive) | GI50 (SN12C): > 100 µM (inactive) | GI50 (HCC 2998): > 100 µM (inactive) | GI50 (MDA-MB-231): > 100 µM (inactive) | GI50 (K562): > 100 µM (inactive) | GI50 (SW-620): > 33.3 µM (inactive) | GI50 (EKVX): > 100 µM (inactive) | GI50 (HOP-92): > 64.9 µM (inactive) | GI50 (DLD-1): > 100 µM (inactive) | GI50 (OVCAR-4): > 100 µM (inactive) | GI50 (HOP-62): > 100 µM (inactive) | GI50 (Malme-3M): > 100 µM (inactive) | GI50 (NCI-H23): > 100 µM (inactive) | GI50 (SK-OV-3): > 100 µM (inactive) | GI50 (SR): > 100 µM (inactive) | GI50 (RXF 393): > 100 µM (inactive) | GI50 (COLO 205): > 100 µM (inactive) | GI50 (786-0): > 100 µM (inactive) | GI50 (SNB-75): > 100 µM (inactive) | GI50 (RPMI-8226): > 100 µM (inactive) | GI50 (ACHN): > 100 µM (inactive) | GI50 (SF-295): > 100 µM (inactive) | GI50 (IGROV-1): > 100 µM (inactive) | GI50 (DU-145): > 100 µM (inactive) | GI50 (Hs-578T): > 100 µM (inactive) | GI50 (U-251): > 100 µM (inactive) | GI50 (HCT-15): > 100 µM | GI50 (LOX IMVI): > 100 µM (inactive) | GI50 (UACC-257): > 100 µM (inactive) | GI50 (SK-MEL-2): > 100 µM (inactive) | GI50 (KM-20L2): > 100 µM (inactive) | GI50 (NCI-H226): > 100 µM (inactive) | GI50 (UO-31): > 100 µM (inactive) | GI50 (SF-268): > 100 µM (inactive) | GI50 (OVCAR-8): > 100 µM (inactive) | GI50 (KM12): > 100 µM (inactive) | GI50 (A549): > 100 µM (inactive) | GI50 (DMS-273): > 100 µM (inactive) | GI50 (BT-549): 65.2 µM (inactive) | GI50 (M14): > 100 µM (inactive) | GI50 (NCI-H522): > 100 µM (inactive) | GI50 (UACC-62): > 100 µM (inactive) | GI50 (NCI-H460): > 100 µM (inactive) | GI50 (HL-60): 97.9 µM (inactive) | GI50 (NCI/ADR-RES): > 100 µM (inactive) | GI50 (MDA-MB-435): > 100 µM (inactive) | GI50 (SF-539): > 100 µM (inactive) | GI50 (PC-3): > 100 µM (inactive) | GI50 (OVCAR-3): > 100 µM (inactive) | GI50 (TK-10): > 100 µM (inactive) | GI50 (HT-29): > 100 µM (inactive) | GI50 (M19-MEL): > 100 µM (inactive) | GI50 (HCT-116): > 100 µM (inactive) | GI50 (T47D): > 100 µM (inactive) | GI50 (SK-MEL-5): > 75.3 µM (inactive) | GI50 (CAKI-1): > 100 µM (inactive)

Reference: ChEMBL document CHEMBL1201862, “PubChem BioAssay data set” (2004)
